Peptide text beside a SMILES is read from it. * marks the point of attachment. X1 = CC(=O)N[C@@H]1[C@@H](O)[C@H](O[C@@H]2O[C@H](CO)[C@@H](O[C@@H]3O[C@H](CO[C@H]4O[C@H](CO)[C@@H](O)[C@H](O)[C@@H]4O[C@@H]4O[C@H](CO)[C@@H](O[C@@H]5O[C@H](CO[C@]6(C(=O)O)C[C@H](O)[C@@H](NC(C)=O)[C@H]([C@H](O)[C@H](O)CO)O6)[C@H](O)[C@H](O)[C@H]5O)[C@H](O)[C@H]4NC(C)=O)[C@@H](O)[C@H](O[C@H]4O[C@H](CO)[C@@H](O)[C@H](O)[C@@H]4O[C@@H]4O[C@H](CO)[C@@H](O[C@@H]5O[C@H](CO[C@]6(C(=O)O)C[C@H](O)[C@@H](NC(C)=O)[C@H]([C@H](O)[C@H](O)CO)O6)[C@H](O)[C@H](O)[C@H]5O)[C@H](O)[C@H]4NC(C)=O)[C@@H]3O)[C@H](O)[C@H]2NC(C)=O)[C@@H](CO)O[C@H]1NC(=O)C*
Columns and labels:
mouse GLP-1 receptor = biological target: T1, mouse GLP-1 receptor (Mus musculus, UniProt O35659); assay: Test Example 6: ability to synthesize cAMP in mouse GLP-1 receptor-expressing CHO-K1 cells; format: cell-based
T1 construct: expressed in transfected cells
T1 sequence (O35659 22-463): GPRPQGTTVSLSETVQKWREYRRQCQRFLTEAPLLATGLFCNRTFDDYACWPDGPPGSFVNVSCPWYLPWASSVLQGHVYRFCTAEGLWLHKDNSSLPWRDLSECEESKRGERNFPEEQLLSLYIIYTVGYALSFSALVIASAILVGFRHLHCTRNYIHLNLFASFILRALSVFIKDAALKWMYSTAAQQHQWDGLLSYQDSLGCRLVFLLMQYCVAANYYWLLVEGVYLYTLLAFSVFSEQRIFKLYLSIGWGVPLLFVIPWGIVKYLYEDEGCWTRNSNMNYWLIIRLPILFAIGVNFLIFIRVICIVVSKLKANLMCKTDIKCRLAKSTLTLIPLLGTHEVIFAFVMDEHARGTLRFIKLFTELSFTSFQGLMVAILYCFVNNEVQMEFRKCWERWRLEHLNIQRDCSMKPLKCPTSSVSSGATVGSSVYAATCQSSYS
Experimental: 1. Construction of Mouse GLP-1 Receptor-Expressing Vector
A mouse GLP1 receptor sense primer (5′-[…]-3′) (SEQ ID NO: 152) and a mouse GLP-1 receptor antisense primer (5′-[…]-3′) (SEQ ID NO: 153) capable of binding to the 5′ and 3′ ends of mouse GLP-1 receptor cDNA were separately synthesized. PCR was performed using Ex Taq polymerase (TaKaRa) with cDNA (Clone ID: 40046534, Open Biosystems) as a template. Specifically, 50 μL in total of reaction solution consisting of 1 μL of template cDNA (10 ng/μL), 4 μL of 2.5 mM dNTPs, 1 μL of primer solution mixtures (each 50 μM), 5 μL of ×10 Ex Taq polymerase Buffer, 0.25 μL of Ex Taq polymerase and 38.75 μL of sterilized water was used and allowed to react by 94° C. for 1 minute; 94° C. for 45 seconds, 55° C. for 1 minute and 72° C. for 2 minutes (35 cycles); and 72° C. for 10 minutes. The PCR reaction product was electrophoresed on 1% agarose gel, and the cDNA fragment was purified using Wizard SV Gel and PCR Clean-up System (Promega) and treated with restriction enzymes (EcoRI and NheI) to obtain mouse GLP-1 receptor cDNA.
To efficiently obtain cells highly expressing a mouse GLP-1 receptor, a pIRES-gfp vector was used as an expression vector. This vector was prepared by inserting, to a vector pEGFP-N1 (Clontech), an IRES gene-containing DNA fragment obtained by the restriction enzyme treatment (Sal I and BamHI) of pIRESpuro2 (Clontech).
The mouse GLP-1 receptor cDNA fragment was inserted to pIRES-gfp to thereby obtain a mouse GLP-1 receptor-expressing vector mGLP-1R/pIRES-gfp. The DNA sequence of the obtained vector was confirmed using ABI3100-Avant (Applied Biosystems).
2. Preparation of Mouse GLP-1 Receptor-Expressing CHO-K1 Cells
CHO-K1 cells (ATCC catalog No. CCL-61) were transfected with the obtained mGLP-1R/pIRES-gfp using FuGENE (registered trademark) (Roche) according to the instruction manual. The transfected CHO-K1 cells were cultured in RPMI1640 medium (Wako Pure Chemical Industries) containing 10% FCS (Hyclone) and penicillin-streptomycin (SIGMA). Drug selection was conducted by the addition of 1.0 mg/ml G418 (Wako Pure Chemical Industries). The drug resistance cells were sorted with a cell sorter (EPICS ALTRA, Beckman Coulter) using a GFP expression level as an index. After the sorting, the limiting dilution method was conducted to obtain cells highly expressing GFP, namely, cells highly expressing a mouse GLP-1 receptor. The obtained cells were used as mouse GLP-1 receptor-expressing CHO-K1 cells in the experiment shown below.
3. Analysis of Agonist Effect of Oligosaccharide Chain Added GLP-1 Peptide (Ability to Synthesize cAMP)
The mouse GLP-1 receptor-expressing CHO-K1 cells prepared in the preceding paragraph 2 were used to evaluate the agonist effect of the oligosaccharide chain added GLP-1 peptide using the ability to synthesize cAMP as an index.
The mouse GLP-1 receptor-expressing CHO-K1 cells were suspended at a concentration of 5×10^5 cells/ml in RPMI1640 medium containing 10% FCS. The cell suspension was seeded at a concentration of 100 μL per well to a flat-bottomed 96-well plate (Falcon) and cultured at 5% CO2 at 37° C. for 16 hours. The culture supernatant was discarded. The oligosaccharide chain added GLP-1 peptide dissolved in Krebs Ringer bicarbonate Buffer containing 2.5 mM glucose was added at a concentration of 100 μL/well and cultured at 37° C. for 30 minutes. The culture supernatant was immediately discarded. The amount of cAMP synthesized in the mouse GLP-1 receptor-expressing CHO-K1 cells was measured using cAMP ELISA Kit (GE Healthcare or Cayman) and used as an index for the agonist effect of the oligosaccharide chain added GLP-1 peptide on mouse GLP-1 receptors.
GLP-1 increases intracellular cAMP concentrations through the binding to its receptor and promotes insulin secretion. Thus, the activity of the oligosaccharide chain added GLP-1 peptide was evaluated using the ability to synthesize cAMP as an index. […]

C57BL/6JJcl mice = assay: Test Example 7: Oral Glucose Tolerance Test (OGTT); format: in vivo
Procedure, shortened: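 Overnight-fasted mice received oral glucose 1 mg/g 30 minutes after treatment. Orbital blood taken before and at 30, 60, 120 minutes post-glucose. Blood glucose measured by glucometer.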

[1] = system: db/db (BKS.Cg-+Lepr db/+Lepr db/Jcl) mice; assay: Test Example 8: effect of lowering blood-sugar levels in diabetes model mice; format: in vivo; conditions: 9 nmol/kg intraperitoneal
Experimental: The oligosaccharide chain added GLP-1 peptide prepared in Example 2, 3, 4, 21 or 23 or the GLP-1 prepared in Comparative Example 1 in a PBS solution (9 nmol/10 ml) was intraperitoneally administered at a dose of 10 ml/kg to BKS.Cg−+Lepr^db/+Lepr^db/Jcl mice (10 week old, male). Blood was collected from the orbits before the compound administration and 30 minutes, 60 minutes, 120 minutes, 180 minutes and 300 minutes after the compound administration. Blood-sugar levels were measured using ACCU-CHEK Aviva (Roche Diagnostics).
The db/db (BKS.Cg−+Lepr^db/+Lepr^db/Jcl) mice serving as diabetes model mice have a mutation in a receptor of leptin which is anorexigenic/energy metabolism-accelerating hormone and develops conditions such as obesity or hyperglycemia.
Blood-sugar levels were measured over time, and their effects of lowering blood-sugar levels were compared with that of the GLP-1 without oligosaccharide chain addition of Comparative Example 1.

Structure (SMILES): CC[C@H](C)[C@H](NC(=O)[C@H](Cc1ccccc1)NC(=O)[C@H](CCC(=O)O)NC(=O)[C@H](CCCCN)NC(=O)[C@H](C)NC(=O)[C@H](C)NC(=O)[C@H](CCC(N)=O)NC(=O)CNC(=O)[C@H](CCC(=O)O)NC(=O)[C@H](CC(C)C)NC(=O)[C@H](Cc1ccc(O)cc1)NC(=O)[C@H](CO)NC(=O)[C@H](CO)NC(=O)[C@@H](NC(=O)[C@H](CC(=O)O)NC(=O)[C@H](CO)NC(=O)[C@@H](NC(=O)[C@H](Cc1ccccc1)NC(=O)[C@@H](NC(=O)CNC(=O)[C@H](CCC(=O)O)NC(=O)[C@H](C)NC(=O)[C@@H](N)Cc1c[nH]cn1)[C@@H](C)O)[C@@H](C)O)C(C)C)C(=O)N[C@@H](CSCC(=O)N[C@@H]1O[C@H](CO)[C@@H](O[C@@H]2O[C@H](CO)[C@@H](O[C@@H]3O[C@H](CO[C@H]4O[C@H](CO)[C@@H](O)[C@H](O)[C@@H]4O[C@@H]4O[C@H](CO)[C@@H](O[C@@H]5O[C@H](CO[C@]6(C(=O)O)C[C@H](O)[C@@H](NC(C)=O)[C@H]([C@H](O)[C@H](O)CO)O6)[C@H](O)[C@H](O)[C@H]5O)[C@H](O)[C@H]4NC(C)=O)[C@@H](O)[C@H](O[C@H]4O[C@H](CO)[C@@H](O)[C@H](O)[C@@H]4O[C@@H]4O[C@H](CO)[C@@H](O[C@@H]5O[C@H](CO[C@]6(C(=O)O)C[C@H](O)[C@@H](NC(C)=O)[C@H]([C@H](O)[C@H](O)CO)O6)[C@H](O)[C@H](O)[C@H]5O)[C@H](O)[C@H]4NC(C)=O)[C@@H]3O)[C@H](O)[C@H]2NC(C)=O)[C@H](O)[C@H]1NC(C)=O)C(=O)N[C@@H](Cc1c[nH]c2ccccc12)C(=O)N[C@@H](CC(C)C)C(=O)N[C@H](C(=O)N[C@@H](CCCCN)C(=O)NCC(=O)N[C@@H](CCCNC(=N)N)C(=O)NCC(=O)O)C(C)C [Example 21, 30Cys GLP-1-disialo] (H-HAEGTFTSDVSSYLEGQAAKEFIC(X1)WLVKGRG-OH)
- cAMP synthesis activity compared with GLP-1 (in words) (mouse GLP-1 receptor): activity equal to or more than that of the GLP-1
- activity of suppressing rise in blood-sugar levels in OGTT (C57BL/6JJcl mice; 0.09 nmol/kg intraperitoneal): weaker activity of suppressing rise in blood-sugar levels than that of the 36Cys GLP-1-disialo at the same dose
- effect of suppressing rise in blood-sugar levels in OGTT (C57BL/6JJcl mice; 0.9 nmol/kg intraperitoneal): suppressed rise in blood-sugar levels almost completely
- effect of suppressing rise in blood-sugar levels in OGTT (C57BL/6JJcl mice; 9 nmol/kg intraperitoneal 30 minutes before glucose 1 mg/g oral): strong effect of suppressing rise in blood-sugar levels
- dose dependence of activity of suppressing rise in blood-sugar levels in OGTT (C57BL/6JJcl mice; doses 0.9 nmol/kg and 0.09 nmol/kg intraperitoneal): dose-dependent activity of suppressing rise in blood-sugar levels
- effect of lowering blood-sugar levels in db/db mice ([1]; 10-week-old male mice): strong effect of lowering blood-sugar levels
- durability of effect of lowering blood-sugar levels in db/db mice ([1]; up to 300 minutes): blood-sugar levels were kept at low levels after 300 minutes
